Test results taken from paper PMC7567103 (Nature Communications, 2020).

Key:
Type in all cases: cell-based
GHRHR E123A = molecular target: T1, GHRHR E123A (Homo sapiens, UniProt Q02643, E123A); test: cAMP accumulation, E123A; conditions: mean ± SEM, n ≥ 3
T1 construct: GHRHR(23-423)-; HA signal peptide (replaces native signal M1-G22) (N); expressed in transfected cells; host or cells: HEK 293T, pcDNA3.1, transient
Source text: Fig. 2 Molecular recognition of GHRH by GHRHR and comparison of that with LA-PTH–PTH1R and GLP-1–GLP-1R. a Detailed interaction between GHRH and the TMD pocket of GHRHR with hydrogen bonds shown as dotted lines. b, c Pairwise comparison of GHRH bound to GHRHR with GLP-1 and LA-PTH in complex with their corresponding receptors, showing the relative positions of peptide ligands. Lime green, GHRHR; blue, GHRH; red, PTH1R and LA-PTH; purple, GLP-1R and GLP-1. d–f The effects of mutation in the ligand-binding pocket on cAMP accumulation. cAMP levels were measured in wild-type (WT) receptor and alanine mutants in ECL1, 2, and 3 (d), TM1, 2, and 3 (e), and TM5, 6, and 7 (f). cAMP signals were normalized to the maximum response of WT and concentration–response curves were analyzed using a three-parameter logistic equation. Data shown are means ± S.E.M. of at least three independent experiments (n = 3–5), conducted in triplicate. Source data are provided as a Source data file.
GHRH-stimulated cAMP accumulation was measured by a LANCE Ultra cAMP kit (PerkinElmer). […] After 1 h RT incubation, TR-FRET signals (excitation: 320 nm, emission: 615 and 665 nm) were measured by an EnVision (PerkinElmer).

GHRHR(23-423) (WT) = molecular target: T2, GHRHR(23-423) (WT) (Homo sapiens, UniProt Q02643); test: cAMP accumulation, construct GHRHR(23-423) (WT) (Supplementary Fig. 2b); conditions: HEK 293T; mean ± SEM, n = 8-10
T2 construct: 24 h after transfection with GHRHR(23-423), GHRHR(23-405), GHRHR(23-405)-LgBiT-2MBP, or HA-Flag-GHRHR (WT and mutants); HA signal peptide (replaces native signal M1-G22) (N); expressed in transfected cells; host or cells: HEK 293 T
T2 sequence (Q02643 23-423): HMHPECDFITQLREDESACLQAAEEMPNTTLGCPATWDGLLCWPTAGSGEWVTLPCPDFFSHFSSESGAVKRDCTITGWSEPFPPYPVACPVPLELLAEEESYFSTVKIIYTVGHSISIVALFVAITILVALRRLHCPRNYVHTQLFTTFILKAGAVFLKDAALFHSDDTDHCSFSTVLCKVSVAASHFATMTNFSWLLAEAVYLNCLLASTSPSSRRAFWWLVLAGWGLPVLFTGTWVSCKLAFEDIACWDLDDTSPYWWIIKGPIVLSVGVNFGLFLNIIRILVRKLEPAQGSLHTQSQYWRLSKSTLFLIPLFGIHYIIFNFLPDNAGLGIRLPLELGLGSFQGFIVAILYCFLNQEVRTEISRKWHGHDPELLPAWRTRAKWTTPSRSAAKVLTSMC
Procedure: (§1) GHRH-stimulated cAMP accumulation was measured by a LANCE Ultra cAMP kit (PerkinElmer). Briefly, 24 h after transfection with GHRHR(23-423), GHRHR(23-405), GHRHR(23-405)-LgBiT-2MBP, or HA-Flag-GHRHR (WT and mutants), HEK 293 T cells (3000/well in 384-well white plates, PerkinElmer) were digested by 0.2% (w/v) EDTA and 5 μL stimulation buffer (HBSS supplemented with 5 mM HEPES, 0.5 mM IBMX, and 0.1% (w/v) BSA, pH 7.4). Different concentrations (5 μL) of GHRH were then added and the stimulation lasted for 30 min at RT. The reaction was stopped by adding 5 μL Eu-cAMP tracer and 5 μL ULight-anti-cAMP. After 1 h RT incubation, TR-FRET signals (excitation: 320 nm, emission: 615 and 665 nm) were measured by an EnVision (PerkinElmer).
(§2) 223 Supplementary Ta b l e 1. Effects of GHRH-mediated cAMP accumulation.
(§3) Receptor cAMP Cell surface expression Binding
(§4) pEC50 Emax (% WT) (% WT) pIC50 […]
(§5) 225 to determine pEC50 and Emax values. pEC50 is the negative logarithm of the molar
(§6) 226 concentration of agonist that induced half the maximal response. Cell surface […]
(§7) 228 Flag antibody (Sigma-Aldrich, 1:300); Donkey anti-Mouse Alexa Fluor 488-
(§8) 229 conjugated secondary antibody, (ThermoFisher Scientific, 1:1000)] on the […]
(§9) 231 Binding data were analyzed using a three-parameter logistic equation to […]
(§10) 234 determine statistical difference. *P<0.01; ND, not determined.

[1] = molecular target: T3, GHRHR(23-405)-15AA-LgBiT-2MBP (Homo sapiens, UniProt Q02643); test: cAMP accumulation, construct GHRHR(23-405)-15AA-LgBiT-2MBP (Supplementary Fig. 2b); conditions: HEK 293T; mean ± SEM, n = 8-10
T3 construct: 24 h after transfection with GHRHR(23-423), GHRHR(23-405), GHRHR(23-405)-LgBiT-2MBP, or HA-Flag-GHRHR (WT and mutants); HA signal peptide (replaces native signal M1-G22) (N); expressed in transfected cells; host or cells: HEK 293 T
T3 sequence (Q02643 23-405): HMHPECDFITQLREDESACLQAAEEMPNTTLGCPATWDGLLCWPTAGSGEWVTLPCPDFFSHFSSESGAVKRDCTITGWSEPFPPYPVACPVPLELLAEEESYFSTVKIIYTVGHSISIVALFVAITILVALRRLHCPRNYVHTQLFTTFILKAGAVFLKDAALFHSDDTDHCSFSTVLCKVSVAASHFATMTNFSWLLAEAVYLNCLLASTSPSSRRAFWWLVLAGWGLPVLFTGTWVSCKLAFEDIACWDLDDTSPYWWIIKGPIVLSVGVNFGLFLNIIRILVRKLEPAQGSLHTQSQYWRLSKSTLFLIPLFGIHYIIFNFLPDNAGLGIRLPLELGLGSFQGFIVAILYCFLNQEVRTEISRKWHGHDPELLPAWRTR
Procedure: as §1, §2, §3, §4, §5, §6, §7, §8, §9, §10

T1 sequence (Q02643 23-423 E123A): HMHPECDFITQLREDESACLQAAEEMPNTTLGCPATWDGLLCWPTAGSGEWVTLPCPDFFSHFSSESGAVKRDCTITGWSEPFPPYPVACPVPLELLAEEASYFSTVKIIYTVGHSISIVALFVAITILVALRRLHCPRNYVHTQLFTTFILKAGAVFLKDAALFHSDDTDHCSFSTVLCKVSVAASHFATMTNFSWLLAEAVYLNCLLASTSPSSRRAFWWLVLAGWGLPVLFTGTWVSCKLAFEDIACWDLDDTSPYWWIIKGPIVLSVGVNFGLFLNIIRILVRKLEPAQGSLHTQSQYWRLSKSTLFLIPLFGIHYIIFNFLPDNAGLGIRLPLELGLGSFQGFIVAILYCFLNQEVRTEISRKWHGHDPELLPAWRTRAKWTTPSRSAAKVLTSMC

In the case of CC[C@H](C)[C@H](NC(=O)[C@H](C)NC(=O)[C@H](CC(=O)O)NC(=O)[C@H](C)NC(=O)[C@@H](N)Cc1ccc(O)cc1)C(=O)N[C@@H](Cc1ccccc1)C(=O)N[C@H](C(=O)N[C@@H](CC(N)=O)C(=O)N[C@@H](CO)C(=O)N[C@@H](Cc1ccc(O)cc1)C(=O)N[C@@H](CCCNC(=N)N)C(=O)N[C@@H](CCCCN)C(=O)N[C@H](C(=O)N[C@@H](CC(C)C)C(=O)NCC(=O)N[C@@H](CCC(N)=O)C(=O)N[C@@H](CC(C)C)C(=O)N[C@@H](CO)C(=O)N[C@@H](C)C(=O)N[C@@H](CCCNC(=N)N)C(=O)N[C@@H](CCCCN)C(=O)N[C@@H](CC(C)C)C(=O)N[C@@H](CC(C)C)C(=O)N[C@@H](CCC(N)=O)C(=O)N[C@@H](CC(=O)O)C(=O)N[C@H](C(=O)N[C@@H](CCSC)C(=O)N[C@@H](CO)C(=O)N[C@@H](CCCNC(=N)N)C(=O)N[C@@H](CCC(N)=O)C(=O)N[C@@H](CCC(N)=O)C(=O)NCC(=O)N[C@@H](CCC(=O)O)C(=O)N[C@@H](CO)C(=O)N[C@@H](CC(N)=O)C(=O)N[C@@H](CCC(N)=O)C(=O)N[C@@H](CCC(=O)O)C(=O)N[C@@H](CCCNC(=N)N)C(=O)NCC(=O)N[C@@H](C)C(=O)N[C@@H](CCCNC(=N)N)C(=O)N[C@@H](C)C(=O)N[C@@H](CCCNC(=N)N)C(=O)N[C@@H](CC(C)C)C(N)=O)[C@@H](C)CC)C(C)C)[C@@H](C)O [GHRH, Growth hormone-releasing hormone], the EC50 (GHRHR E123A) is reported as 72.4 pM, the Emax (GHRHR E123A) is reported as 100.33±1.34 % WT and the EC50 (GHRHR(23-423) (WT)) is reported as 631 pM. The Emax (GHRHR(23-423) (WT)) was 100 % WT, the EC50 [1] was 2880 pM and the Emax [1] was 78.82±10.52 % WT.
